In US20080188563A1, “BLOOD FLUIDITY IMPROVING AGENT” (KAO CORPORATION, priority 2002, published 2008):

What was measured:
[1] = tested on: stroke-prone spontaneously hypertensive rats (SHRSP/Izm, male); experiment: Evaluation of blood fluidity: whole blood transit time through microchannel array (MC-FAN) after 28 days oral administration; assay type: in vivo, rat; details: 50 mg/Kg/day oral; for Transit time: 7 μm microchannels, 20 cm water column
Procedure: Tests were started using stroke-prone spontaneously hypertensive rats (SHRSP/Izm, male) 6 weeks old after acclimating the rats 1 week or longer. The rats were all fed under the conditions of 20 to 26° C. temperature, 40 to 70% humidity and 12 hr. lighting time (from 6 a.m. to 6 p.m.).
The rats were administered with samples of the example of the present invention and samples of the comparative example once a day for continuous 28 days from a day when the rats reached 8 weeks of age. For administration, samples were orally administered by forced administration using a disposable polypropylene syringe attached with a metallic oral sonde. For the example, each sample contained a chlorogenic acid (supplied by Sigma Chemical Co., Ltd.) of 50 mg/Kg (body weight)/day, while the comparative example used the equal dose of injection grade water (supplied by Otsuka Pharmaceutical Co., Ltd., Tokyo, Japan) as samples. The preferred example also used the injection grade water as a medium for samples.
For feeds, the rats had been fed freely with a solid feed (CRF-1 supplied by Oriental Yeast Co., Ltd., Tokyo, Japan) for a period from the arrival to grouping of rats and with another solid feed (SP (a feed containing 0.4% common salt) supplied by the same manufacturer as above) for a period succeeding to the grouping. For drinking water, tap water was used in the period from the receipt to grouping of rats and 1% brine in the period after the grouping, respectively, for free uptake.
After administering rats with a specified sample for 28 continuous days, blood was sampled from each rat using a VENOJECT II vacuum blood collection tube of 7 mL size (available from Terumo Corporation, Tokyo, Japan) preinfused with 350 μL heparin as an anticoagulant (equivalent to 5% of whole blood). Upon sampling, the blood was agitated quickly to obtain blood samples for measurement. For blood measurement, a cellular microrheological measurement system was used (MC-FAN available from Hitachi Haramachi Electronics Co., Ltd., Ibaragi, Japan). The system incorporates an array of microchannels as a model of blood capillaries to measure the flowing characteristics of blood cells under constant differential pressure. As the model of blood capillaries, a silicon monocrystal basal plate having microchannels of 7 μm in width was used.
First, the time was measured for a 100 μL physiological saline solution to pass through the blood capillary model under differential pressure of 20 cm water column (the measured value to be used later for correction). Then the time was measured (in sec.) for a 100 μL each blood sample to pass through the blood capillary model under the same conditions. The time was measured every 10 μL fraction of sample flow. Each blood sample was microscopically observed as it flowed through the blood capillary model.

[2] = tested on: stroke-prone spontaneously hypertensive rats (SHRSP/Izm, male); experiment: Evaluation of effects of improving cerebrovascular diseases: development of cerebral apoplexy, histopathological examination; assay type: in vivo, rat; details: 50 mg/Kg/day oral, 49 days
Procedure: Tests were started using stroke-prone spontaneously hypertensive rats (SHRSP/Izm, male) 6 weeks old after acclimating the rats I week or longer. The rats were all fed under the conditions of 20 to 26° C. temperature, 40 to 70% humidity and 12 hr. lighting time (from 6 a.m. to 6 p.m.). Rat was administered with samples of the preferred example of the present invention and samples of the comparative example once a day for continuous 49 days from a day when the rats reached 8 weeks of age. For administration, samples were orally administered by forced administration using a disposable polypropylene syringe attached with a metallic oral sonde. For the preferred example, each sample comprised a chlorogenic acid (supplied by Sigma Chemical Co., Ltd.) of 50 mg/Kg (body weight)/day, while the comparative example used the equal dose of injection grade water (supplied by Otsuka Pharmaceutical Co., Ltd., Tokyo, Japan) as samples. The preferred example also used the injection grade water as a medium for samples. For feeds, the rats were fed freely with a solid feed (CRF-1 supplied by Oriental Yeast Co., Ltd., Tokyo, Japan) for a period from the arrival to grouping of rats and with another solid feed (SP (a feed containing 0.4% common salt) supplied by the same manufacturer as above) for a period succeeding to the grouping. […]

With O=C(/C=C/c1ccc(O)c(O)c1)O[C@@H]1C[C@](O)(C(=O)O)C[C@@H](O)[C@H]1O [Preferred example, chlorogenic acid] the “Transit times versus comparative example (injection grade water), in words” value [1] was “shorter transit times”, the Transit time ([1]; blood volume passed 10 μL) was 4.87 s and the Transit time ([1]; blood volume passed 20 μL) was 9.67 s. For the same molecule, the Transit time ([1]; blood volume passed 30 μL) was 14.31 s, the Transit time ([1]; blood volume passed 40 μL) was 19.34 s and the Transit time ([1]; blood volume passed 50 μL) was 24.59 s. The Transit time ([1]; blood volume passed 60 μL) was 30.03 s, the Transit time ([1]; blood volume passed 70 μL) was 35.90 s and the Transit time ([1]; blood volume passed 80 μL) was 41.65 s. For the same molecule, the Transit time ([1]; blood volume passed 90 μL) was 47.58 s, the Transit time ([1]; blood volume passed 100 μL) was 53.38 s and the “Development of cerebral apoplexy versus comparative example (injection grade water), in words” value [2] was “definitely suppressed development of cerebral apoplexy”. The “Cerebral apoplexy developed (number of rats)” value ([2]; of 10 rats used) was 3.
